According to PMC5382548 (Scientific Reports, 2015):
“Also recorded” adds a separate entry of the source. Where two headings read alike, the source gives them in different places.

Assays:
[1] = tested on: KRAS mRNA in HCT116 cells; assay: KRAS mRNA steady-state levels, Taqman real-time RT-PCR, HCT116; assay type: cell-based, human; conditions: 72 h; for Reduction of KRAS mRNA steady-state levels, HCT116: equitoxic (IC50) concentrations (TMPyP4 12 μM)
Method: The effects of compounds on KRAS transcription in colon cancer cells (HCT116 and SW620) were evaluated by quantifying KRAS mRNA steady-state levels using Taqman real-time RT-PCR.
(a) KRAS mRNA steady-state expression was evaluated by Taqman Real-time RT-PCR using specific Taqman Assays for KRAS and β-Actin for normalization. KRAS mRNA steady-state expression levels were calculated by the ΔΔCt method, using DMSO (vehicle control) for calibration; and (b) KRAS protein steady-state expression evaluated by immunoblot relative to control (DMSO vehicle) Results are expressed as mean ± SEM of at least three independent experiments; *p < 0.05 and §p < 0.01 from DMSO (vehicle control).
HCT116, SW620 and HEK293 T cells were seeded in 35 mm plates at 150000 cells per well. […] After 72 h of compound exposure, cells were collected and processed for total RNA extraction using TRIZOL reagent (Invitrogen) according to the manufacturer's instructions. Samples were homogenized in TRIZOL reagent using a motor-driven Bio-vortexer (No1083; Biospec Products, Bartlesfield, OK) and disposable RNAse/DNAse free sterile pestles (Thermo Fisher Scientific, Inc., Chicago, IL). […] Evaluation of steady-state expression of KRAS mRNA was performed by Taqman Real-time PCR assay, detailed in Supplementary Information.
Total RNA extraction and Taqman real-time RT-PCR
Taqman Real-time PCR reactions were performed using 1.5 µg of total RNA, using High Capacity RNA to cDNA kit, according to the manufacturer`s instruction. Next, Real-time PCR reactions were performed using Taqman Universal Master Mix II, no UNG, and primers specific to human KRAS (assay ID Hs00000174_rf, # 4465807) primers and to Human β- Actin (ACTB # 401846) for normalization to endogenous control (both from Applied Biosystems Inc). Triplicate reactions were run per sample. Data was collected with 7300 System Sequence Detection Software, version 1.2.3 (Applied Biosystems Inc). The comparative threshold cycle method was used to calculate the amplification factor, where the threshold cycle (Ct) is defined as the cycle number at which the fluorescence passes the fixed threshold intensity level. KRAS expression levels in different samples were calculated on the basis of ΔΔCt method. For each cell line, vehicle control (DMSO) was used as the calibrator. The n-fold change in KRAS expression was obtained using the formula: 2-ΔΔCt. […]
SW620 and HEK293 T cells were seeded in 24-well plates 50,000cells/well. Twenty-four hours later, cells were exposed to compounds for 72 h. After treatment, cell culture supernatants were collected and adherent cells were detached with TrypLE (Invitrogen).
Next, detached cells were pooled with cell culture supernatants and centrifuged for 5 min (650 g). […]

[2] = tested on: HEK293T (embryonic kidney); assay: MTS short-term cytotoxicity assay, HEK293T; assay type: cell-based; conditions: Homo sapiens, HEK-293T, 72 h, read-out: IC50 HEK293T
Method: (§1) Short-term anti-proliferative assays were carried out by two different assays using a panel of human cancer and non-malignant human cell lines. […] The transformed human embryonic kidney cell line HEK293T (wt KRAS) was sensitive to all tested drugs, including TMPyP4, a cationic porphyrin established as a G4 ligand, as well as the anticancer drug 5-fluorouracil (5-FU).
HCT116 human colon carcinoma cells, SW620 human colorectal adenocarcinoma and HEK293 T human embryonic kidney cells were grown in Dulbecco's modified Eagle's medium (DMEM) supplemented with 10% fetal bovine serum, and 1% antibiotic/antimycotic (Invitrogen, Grand Island, NY, USA) and maintained at 37°C in a humidified atmosphere of 5% CO2. Cells were seeded in 96 well plates at 5.000 cells/well. Twenty-four hours after cell plating, media was removed and replaced with fresh media containing test compounds and 5-FU (Sigma), a common cytotoxic agent used in colon cancer treatmen, or vehicle control (DMSO). Following 72 h of compound exposure, cell viability was evaluated using the CellTiter 96 AQueous Non-Radioactive Cell Proliferation Assay (Promega, Madison, WI, USA), using 3-(4,5-dimethylthiazol-2-yl)-5-(3-carboxymethoxyphenyl)-2-(4-sulfophenyl)-2H-tetrazolium, inner salt (MTS) as previously described. Cell viability data were expressed as mean ± SEM or mean ± SD from at least three independent experiments. IC50 and IC65 values were determined using GaphPad Prism v.5.00 (GraphPad Software). (Performed at Cell Function and Therapeutic Targeting Group, iMed.ULisboa)

A594 (lung) = assay: SRB short-term cytotoxicity assay, A594; assay type: cell-based, human; conditions: for IC50: Homo sapiens, 96 h
Method: as §1
Human cell lines, breast carcinoma (MCF7), lung carcinoma (A549), pancreatic cancer (MIA PaCa2, Panc-1), immortalised telomerase-negative human lung fibroblast (ALT) and normal human lung fibroblast (WI-38), were all purchased from American Type Cell Culture (ATCC). Cell lines were maintained in appropriate medium supplemented with 10% fetal bovine serum (Invitrogen, UK), 2 mM L-glutamine (Invitrogen, Netherlands), and other components as specified by the suppliers. All cell lines were maintained at 37°C, 5% CO2, and routinely passaged. Short-term growth inhibition was measured using the SRB assay as described previously[43] (additional details described in Supplementary Information). […]
Sulforhodamine B (SRB) short-term cytotoxicity assay
Cells were seeded at appropriate densities into the wells of 96 well plates in their corresponding medium and incubated overnight to allow the cells to attach. Subsequently cells were exposed to various concentrations of freshly made solutions of drugs and incubated for 96 h. The cells were subsequently fixed with ice-cold trichloacetic acid (TCA) (10%, w/v) for 30 min and stained with 0.4% SRB dissolved in 1% acetic acid for 15 min.
All incubations were carried out at room temperature except for TCA fixation, which was at 4 °C. The IC50 value, the concentration required to inhibit cell growth by 50%, was determined from the mean absorbance at 540 nm for each drug concentration expressed as a percentage of the control untreated well absorbance. (Performed at School of Pharmacy, University College of London). […]
(#sc-30/sc-126; Santa Cruz Biotechnology Inc., Santa Cruz, CA, USA). Finally, immunoblots were incubated with secondary anti-mouse antibody conjugated with horseradish peroxidase (BioRad) for 3 h at room temperature. The membranes were processed for protein detection using Super Signal substrate (Pierce, Rockford, IL, USA). β-Actin (#A-5441, Sigma–Aldrich) was used as a loading control. Steady-state protein levels were expressed as mean ±SEM from at least three independent experiments.

| Compound | Reduction of KRAS mRNA steady-state levels, HCT116 [1] | IC50 [2] | IC50 (A594 (lung)) | KRAS mRNA levels reduced to (% remaining) ([1]; IC50 concentration, cell line not given) | IC50 ([2]; MTS assay) | Selectivity index SI = IC50(WI-38)/IC50(A594) (A594 (lung)) |
| --- | --- | --- | --- | --- | --- | --- |
| C[n+]1ccc(-c2c3nc(c(-c4cc[n+](C)cc4)c4ccc([nH]4)c(-c4cc[n+](C)cc4)c4ccc([nH]4)c(-c4cc[n+](C)cc4)c4nc2C=C4)C=C3)cc1 [TMPyP4, reference compound] | no ability to repress KRAS transcription; also recorded: did not inhibit KRAS transcription | 2970 nM |  |  |  |  |
| CCN(CC)CCCNc1ccc2c(c1)c1[nH]c3ccccc3c1c[n+]2C [2d] | 90% |  | 400 nM | ~ 10% | 640 nM |  |
| CCN(CC)CCCNc1ccc2c(c1)[nH]c1c2c[n+](C)c2ccc(NCCCN(CC)CC)cc12.[Cl-] [3e] |  |  | 1450 nM |  | 3120 nM | 7.0 |
| Cn1cc2c3ccccc3nc-2c2cc(Br)ccc21 [2a, 2-bromo-5-methyl-indolo[3,2-c]quinoline] |  |  | 670 nM |  | 300 nM | 9.3 |
| CCN(CC)CCCNc1ccc2[nH]c3c(c[n+](C)c4ccc(NCCCN(CC)CC)cc34)c2c1.[Cl-] [3d] | 25% |  |  |  | 6570 nM |  |
